The values that follow are results of earlier work, collected in patent US20220370529A1, “CANNABIS COMPOSITIONS AND RELATED METHODS” (Access Business Group International LLC, priority 2021, published 2022).

For data set [1] the following is noted: with rapid metabolism or redistribution.
The subject of data set [2] is human keratinocytes (HaCaT cells). As to conditions: of 26 genes upregulated by TNF-α treatment.
The subject of data set [3] is human dermal fibroblast (HDF). The following applies: HDF cells.

As to `CC1=CC[C@H]2C[C@@H]1C2(C)C` [α-Pinene, α-pinene], the human pulmonary uptake in data set [1] is approximately 60%.
Take `C=C(C)[C@@H]1CCC(C)=C[C@H]1c1c(O)cc(CCCCC)cc1O` [CBD, cannabidiol]: the “partition coefficient (log P)” value is approximately 6.3. The “inflammatory related genes downregulated” value in data set [2] was 15 genes. Also, the “inhibitory effects on genes playing a role in inflammation and matrix remodeling, including IL-6 and MMP-9” value in data set [3] (TNF-α treatment) was “did not exhibit any inhibitory effects”. The “wound healing genes downregulated” value in data set [3] (of 16 genes upregulated by TNF-α treatment) is listed as 11 genes.
